This note sets out measurements from patent US7256178B2, “Physiologically active substances” (priority 2002, dated 2007).

Series [1] is described as follows: Physicochemical properties: solubility.
Series [2] in a line: Stability in an aqueous solution (HPLC). The series is classed as physicochemical. As to conditions: pH 7 Britton-Robinson buffer solution, 25° C., 24 hours. Here is the method: The compound of the formula (I) was dissolved in DMSO at a concentration of 10 to 20 mM, and the solution was diluted with a pH 7 Britton-Robinson buffer solution to about 500-fold. This solution was used as a sample solution, and was incubated at 25° C. for 24 hours.
The sample solution before and after the incubation was analyzed using high-performance liquid chromatography to obtain a chromatogram. The percentage of the compound remaining in the sample solution after the incubation was determined from the peak area of the chromatogram.

The subject of series [3] is WiDr human colon cancer cells. Kind of series: Action of inhibiting proliferation of WiDr human colon cancer cells (MTT). The series is classed as cell-based. As to conditions: 72 h, three days, n=2 to 3, read-out: WiDr human colon cancer cell proliferation inhibitory activity (IC50: nM). Here is the method: 2×10^3 cells/well of WiDr human colon cancer cells cultured in a Dulbecco's modified Eagle's medium containing 10% fetal bovine serum, penicillin (100 units/mL) and streptomycin (100 μg/mL) (DMEM, manufactured by Sigma Co.) were plated in a 96-well plate. The cells were cultured in a CO2 incubator overnight, and 20 μL of the above-described culture solution containing the test compound at threefold serial dilutions was added for culturing the cells. After three days, 50 μL of a 3.3 mg/mL MTT solution was added, and the cells were further cultured for one hour. Then, formazan generated by reduction using living cells was extracted with 100 μL of DMSO to measure the absorbance (A540/A660), which was used as an index of the number of living cells.
The concentration for inhibiting 50% of proliferation of WiDr human colon cancer cells (IC50 value) of the compound of the formula (I) was determined (n=2 to 3).

The test system of another series is VEGF promoter. In words: VEGF transcription inhibitory activity (VEGF-PLAP reporter, U251/1-8 cells under hypoxic conditions). The series is classed as cell-based. The settings on record: Homo sapiens, U-251, hypoxic (2% O2) incubator 18 hours, n=2 to 3. The source says:
In order to prepare a reporter system in which transcription from a VEGF promoter is reflected, a VEGF promoter sequence was cloned and inserted into a placental alkaline phosphatase (PLAP) vector to construct a reporter vector.
In order to obtain a promoter region of human VEGF, a VEGF genome was cloned from a phage library. Based on VEGF cDNA (GenBank accession number: X62568), a PCR primer in the sequence described as SEQ ID NO: 1 or SEQ ID NO: 2 was designed to conduct PCR, thereby obtaining about a fragment of 340 bp. A human genomic phage library (human genomic library, Clontech) was screened using this fragment as a probe to obtain pUC18-VEGFA containing a VEGF5′ franking region of about 5.4 kb. This pUC18-VEGFA was cut with Kpn I/Nhe I to obtain a VEGF promoter region of about 2.3 kb, and the region was inserted into the multicloning site Kpn I/Nhe I of the placental alkaline phosphatase (PLAP) reporter vector (Goto et al., Mol. Pharmacol., 49, 860-873, 1996) to construct a VEGF-PLAP vector.
The above-described VEGF-PLAP vector was introduced into U251 cells cultured in a Dulbecco's modified Eagle's medium containing 10% fetal bovine serum (DMEM, manufactured by Sigma Co.), and cultured in the presence of 1 mg/mL G418 (Merck & Co., Inc.) to establish a G418-resistant stable clone (U251/1-8 cells).
As in a report by Minchenko et al. (Cell. Mol. Biol. Res., 40, 35-39, 1994), U251/1-8 cells were confirmed to be a reporter system which secretes PLAP into a culture medium under hypoxic conditions (2% O2 incubator), and in which transcription from a VEGF promoter is reflected. A compound inhibiting VEGF production induced by hypoxic stimulation was screened using this clone.
In order to eliminate influence of the alkali phosphatase in the serum, the U251/1-8 cells were washed with a sufficient amount of PBS (Phosphate buffered saline) twice, and treated at 65° C. for 20 minutes to inactivate the alkaline phosphatase in the serum. 4×10^4 cells/180 μL per well of the cells diluted in the DMEM culture medium containing 10% of this serum were plated in a 96-well plate.
The cells were cultured in a CO2 incubator (5% CO2) at 37° C. overnight, and 20 μL of the above-described culture solution containing the test compound at threefold serial dilutions was added. Subsequently, the cells were cultured in hypoxic (2% O2) incubator for 18 hours. To measure the PLAP activity in the culture supernatant liquid, 10 μL of the culture supernatant liquid was added to 50 μL of a 0.28 M Na2CO3—NaHCO3 buffer solution (pH 10.0, 8.0 mM MgSO4), and finally 50 μL of an alkaline phosphatase substrate (Lumistain, Genome Science Laboratories Co., Ltd.) was added thereto. After the reaction for one hour, chemiluminescence was detected using a microplate reader (PerkinElmer) to measure the PLAP activity as the alkaline phosphatase activity. The PLAP activity under normoxic conditions was defined as 0%, the PLAP activity of the cells when treated under hypoxic conditions was defined as 100%, and the concentration for inhibiting 50% of the PLAP activity was defined as the IC50 value of PLAP. The IC50 values of the 6-deoxy 11107D derivatives shown in examples were determined (n=2 to 3).

A short description of series [4]: Body weight reduction (acute toxicity) in the WiDr nude mouse test. The class given is in vivo. As to conditions: 1.25 mg/kg/day intravenously, nude mice, day when body weights were lightest, relative to day of start of administration. Here is the method: (§1) In order to examine the solid cancer growth inhibitory activity of the compound of the formula (I) in vivo, WiDr human colon cancer cells were subcutaneously implanted into the body of each nude mouse. […] The control group consisted of ten mice, and the 6-deoxy 11107D derivative-administration group consisted of five mice. The derivative was intravenously injected at 0.625 mg/kg/day, 1.25 mg/kg/day, 2.5 mg/kg/day, 5 mg/kg/day, or 10 mg/kg/day to each mouse of the administration group, and a vehicle was administered to each mouse of the control group.
(§2) The tumor volumes on the 15th day were measured to determine the relative tumor weight ratio (T/C %), based on the tumor weight of each mouse of the control group as 100%. The body weights on the day of the start of administration, 5th day, 8th day, 12th day and 15th (or 16th) day were measured to examine the relative body weight variations in the case of administering the representative compounds, based on the body weights on the day of the start of administration as 100%. The minimum relative body weight ratios, which are the relative body weight ratios on the day when the body weights were lightest, are shown in Table 3.

The subject of the next series is WiDr human colon tumors. Kind of series: Solid cancer growth inhibitory action, WiDr cells subcutaneously implanted in nude mice. The series is classed as in vivo, nude mouse. As to conditions: 1.25 mg/kg/day intravenously, 15th day, control group as 100%. The procedure:
as §1, §2

SMILES strings stand for the structures.

Turning to `CCC(O)C(C)C1OC1CC(C)/C=C/C=C(\C)C1OC(=O)CC(O)CCC(C)C(OC(C)=O)/C=C/C1C` (centres unmarked) [6-deoxy 11107B], the “Solubility in organic solvents” value in series [1] (dimethyl sulfoxide, pyridine, methanol, acetone) is “soluble in dimethyl sulfoxide, pyridine, methanol, and acetone”. In addition, the Solubility in water entry in series [1] (water) is listed as “poorly soluble in water”.

For the compound `CCC(O)C(C)C1OC1CC(C)(O)/C=C/C=C(\C)C1OC(=O)CC(O)CCC(C)C(OC(=O)N2CCN(C)CC2)/C=C/C1C` (centres unmarked) [Compound 18, (8E,12E,14E)-3,16,21-trihydroxy-6,10,12,16,20-pentamethyl-7-((4-methylpiperazin-1-yl)carbonyl)oxy-18,19-epoxytricosa-8,12,14-trien-11-olide], the “Remaining percentage (%)” value in series [2] is listed as 95.0%. The IC50 in series [3] was found to be 0.5 nM; in the series on VEGF promoter, 1 nM.

As for `CCC(O)C(C)C1OC1CC(C)(O)/C=C/C=C(\C)C1OC(=O)CC(O)CCC(C)C(OC(=O)N2CCCN(C)CC2)/C=C/C1C` (centres unmarked) [Compound 19, (8E,12E,14E)-3,16,21-trihydroxy-6,10,12,16,20-pentamethyl-7-((4-methylhomopiperazin-1-yl)carbonyl)oxy-18,19-epoxytricosa-8,12,14-trien-11-olide], in series [2], the “Remaining percentage (%)” value came out at 95.5%. The IC50 in series [3] came out at 0.3 nM; with VEGF promoter, 1.1 nM.

For `CCC(O)C(C)C1OC1CC(C)(O)/C=C/C=C(\C)C1OC(=O)CC(O)CCC(C)C(OC(=O)N(C)CCN(CC)CC)/C=C/C1C` (centres unmarked) [Compound 20, (8E,12E,14E)-7-(N-(2-(N′,N′-diethylamino)ethyl-N-methyl)carbamoyloxy)-3,16,21-trihydroxy-6,10,12,16,20-pentamethyl-18,19-epoxytricosa-8,12,14-trien-11-olide], the “Remaining percentage (%)” value in series [2] was determined as 95.6%. In addition, the figures for the IC50 (in series [3]; in the series on VEGF promoter) were 0.2 nM and 1.1 nM, respectively.

With `CCC(O)C(C)C1OC1CC(C)(O)/C=C/C=C(\C)C1OC(=O)CC(O)CCC(C)C(OC(=O)N2CCC(N3CCCCC3)CC2)/C=C/C1C` (centres unmarked) [Compound 21, (8E,12E,14E)-3,16,21-trihydroxy-6,10,12,16,20-pentamethyl-7-((4-(piperidin-1-yl)piperidin-1-yl)carbonyl)oxy-18,19-epoxytricosa-8,12,14-trien-11-olide], in series [2], the “Remaining percentage (%)” value is recorded as 94.8%. The IC50 was 0.6 nM in series [3] and 2 nM with VEGF promoter.

Take `CCC(O)C(C)C1OC1CC(C)(O)/C=C/C=C(\C)C1OC(=O)CC(O)CCC(C)C(OC(=O)NCCN(CC)CC)/C=C/C1C` (centres unmarked) [Compound 22, (8E,12E,14E)-7-(N-(2-(N′,N′-diethylamino)ethyl)carbamoyloxy)-3,16,21-trihydroxy-6,10,12,16,20-pentamethyl-18,19-epoxytricosa-8,12,14-trien-11-olide]: the “Remaining percentage (%)” value in series [2] is listed as 95.4%. For the same compound, the IC50 turned out to be 1.1 nM in series [3] and 2.5 nM with VEGF promoter.

`CCC(O)C(C)C1OC1CC(C)(O)/C=C/C=C(\C)C1OC(=O)CC(O)CCC(C)C(OC(=O)N2CCN(CC(C)(C)C)CC2)/C=C/C1C` (centres unmarked) [Compound 23, (8E,12E,14E)-7-((4-(2,2-dimethylpropyl)piperazin-1-yl)carbonyl)oxy-3,16,21-trihydroxy-6,10,12,16,20-pentamethyl-18,19-epoxytricosa-8,12,14-trien-11-olide]: the IC50 in series [3] turned out to be 3.8 nM; in the series on VEGF promoter it was 14.7 nM.

`CCC(O)C(C)C1OC1CC(C)(O)/C=C/C=C(\C)C1OC(=O)CC(O)CCC(C)C(OC(=O)N(C)C2CCN(C)CC2)/C=C/C1C` (centres unmarked) [Compound 29, (8E,12E,14E)-3,16,21-trihydroxy-6,10,12,16,20-pentamethyl-7-(N-methyl-N-(1-methylpiperidin-4-yl)carbamoyloxy)-18,19-epoxytricosa-8,12,14-trien-11-olide]: the results for the IC50 (in series [3]; in the series with VEGF promoter) were 0.3 nM and 1.3 nM, respectively.

In the case of `CCC(O)C(C)C1OC1CC(C)(O)/C=C/C=C(\C)C1OC(=O)CC(O)CCC(C)C(OC(=O)N2CCCN(C(C)C)CC2)/C=C/C1C` (centres unmarked) [Compound 39, (8E,12E,14E)-3,16,21-trihydroxy-7-((4-isopropylhomopiperazin-1-yl)carbonyl)oxy-6,10,12,16,20-pentamethyl-18,19-epoxytricosa-8,12,14-trien-11-olide], the “Remaining percentage (%)” value in series [2] is recorded as 95.9%. Further, the IC50 in series [3] came out at 0.5 nM; in the series with VEGF promoter, 1.3 nM.

Take `CCC(O)C(C)C1OC1CC(C)(O)/C=C/C=C(\C)C1OC(=O)CC(O)CCC(C)C(OC(=O)N2CCCN(CC)CC2)/C=C/C1C` (centres unmarked) [Compound 43, (8E,12E,14E)-7-((4-ethylhomopiperazin-1-yl)carbonyl)oxy-3,16,21-trihydroxy-6,10,12,16,20-pentamethyl-18,19-epoxytricosa-8,12,14-trien-11-olide]: the “Minimum relative body weight ratio” value in series [4] stood at 0.83. Besides, the “Remaining percentage (%)” value in series [2] was determined as 95.8%. Also, the “WiDr human colon tumor growth inhibitory activity T/C(%)” value with WiDr human colon tumors was determined as 9%. Also, the IC50 in series [3] was found to be 0.5 nM; with VEGF promoter, 2.3 nM.

Regarding `CCC(O)C(C)C1OC1CC(C)(O)/C=C/C=C(\C)C1OC(=O)CC(O)CCC(C)C(OC(=O)N2CCN(C(C)C)CC2)/C=C/C1C` (centres unmarked) [Compound 44, (8E,12E,14E)-3,16,21-trihydroxy-7-((4-isopropylpiperazin-1-yl)carbonyl)oxy-6,10,12,16,20-pentamethyl-18,19-epoxytricosa-8,12,14.-trien-11-olide], in series [2], the “Remaining percentage (%)” value worked out at 95.4%. For the same compound, the IC50 in series [3] came out at 0.6 nM; in the series with VEGF promoter, 2.4 nM.
